From the PolyMetriX glass transition set
± gives the standard deviation of the reports.

Legend:
[1] = not given; remark: listed apart in the source
[2] = not given; remark: listed apart in the source

glass transition temperature [2] | SMILES | further results
319.00 °C | *c1ccc2c(c1)C(=O)N(c1ccc(-c3ccc(N4C(=O)c5ccc(C(*)(C(F)(F)F)C(F)(F)F)cc5C4=O)cc3I)c(I)c1)C2=O (repeat unit) | –
365.00 °C | *c1ccc2c(c1)C(=O)N(c1cc(C(F)(F)F)c(N3C(=O)c4ccc(C(*)(C(F)(F)F)C(F)(F)F)cc4C3=O)cc1C(F)(F)F)C2=O (repeat unit) | –
354.00 °C | *c1ccc(Cc2ccc(-n3c(=O)c4ccc5c(=O)n(*)c(=O)c5c4c3=O)c(C)c2)cc1C (repeat unit) | –
227.00 ± 4.2 °C | *Oc1ccc(C(c2ccc(Oc3ccc4c(c3)C(=O)N(c3ccc(Cc5ccc(N6C(=O)c7ccc(*)cc7C6=O)cc5)cc3)C4=O)cc2)(C(F)(F)F)C(F)(F)F)cc1 (repeat unit) | –
239.00 °C | *Oc1cccc(C(=O)c2ccc(Oc3ccc4c(c3)C(=O)N(c3cccc(N5C(=O)c6ccc(*)cc6C5=O)c3)C4=O)cc2)c1 (repeat unit) | –
285.40 °C | *C(=O)Nc1ccc2ccccc2c1-c1c(NC(=O)c2ccc3c(c2)C(=O)N(c2ccc(Cc4ccc(N5C(=O)c6ccc(*)cc6C5=O)cc4)cc2)C3=O)ccc2ccccc12 (repeat unit) | –
262.00 °C | *C(=O)c1ccc2c(c1)C(=O)N(c1cc(N3C(=O)c4ccc(*)cc4C3=O)ccc1OCC(F)(F)C(F)(F)C(F)(F)F)C2=O (repeat unit) | –
257.50 ± 11 °C | *Sc1ccc2c(c1)C(=O)N(c1cc(Cc3ccc(N4C(=O)c5cccc(*)c5C4=O)c(C)c3)ccc1C)C2=O (repeat unit) | –
330.00 °C | *Sc1cccc2c1C(=O)N(c1ccc(N3C(=O)c4cccc(*)c4C3=O)cc1)C2=O (repeat unit) | –
285.00 °C | *c1ccc2c(c1)C(=O)N(c1ccc(-c3ccc(N4C(=O)c5ccc(C(*)(C(F)(F)F)C(F)(F)F)cc5C4=O)cc3-c3ccc(-c4ccccc4)cc3)c(-c3ccc(-c4ccccc4)cc3)c1)C2=O (repeat unit) | –
312.00 °C | *Oc1c(F)c(F)c(Oc2c(F)c(F)c3c(c2F)C(=O)N(c2ccc(-c4ccc(N5C(=O)c6c(F)c(*)c(F)c(F)c6C5=O)cc4C(F)(F)F)c(C(F)(F)F)c2)C3=O)c(F)c1F (repeat unit) | –
190.00 °C | *CC(N1C(=O)c2ccccc2C1=O)n1c(=O)c2cc3c(=O)n(*)c(=O)c3cc2c1=O (repeat unit) | –
385.00 °C | *C(=O)c1ccc2c(c1)C(=O)N(c1c(C)cc(CC)c(N3C(=O)c4ccc(*)cc4C3=O)c1CC)C2=O (repeat unit) | –
302.50 ± 3.5 °C | *c1cccc2c1C(=O)N(c1ccc(C3(c4ccc(N5C(=O)c6cccc(*)c6C5=O)c(C)c4)CCCCC3)cc1C)C2=O (repeat unit) | –
219.00 °C | *Oc1cccc(Sc2ccc(Oc3ccc4c(c3)C(=O)N(c3ccc(Oc5cccc(Oc6ccc(N7C(=O)c8ccc(*)cc8C7=O)cc6)c5)cc3)C4=O)cc2)c1 (repeat unit) | –
229.00 °C | *C(=O)c1ccc2c(c1)C(=O)N(c1cc(N3C(=O)c4ccc(*)cc4C3=O)ccc1OCC(F)(F)C(F)(F)C(F)(F)C(F)(F)C(F)(F)C(F)(F)F)C2=O (repeat unit) | –
163.00 °C | *C1=C(Cl)C(=O)N(c2cccc(N3C(=O)C(Cl)=C(Oc4ccc(C(C)(C)c5ccc(*)cc5)cc4)C3=O)c2)C1=O (repeat unit) | –
261.00 °C | *Oc1ccc2c(c1)C(=O)N(c1ccc(Oc3c(C)cc(Oc4ccc(N5C(=O)c6ccc(*)cc6C5=O)cc4)c(C)c3C)cc1)C2=O (repeat unit) | –
400.00 °C | *c1ccc(-c2ccc(N3C(=O)c4cc5c(cc4C3=O)C(c3ccccc3)(C(F)(F)F)c3cc4c(cc3O5)C(=O)N(*)C4=O)cc2OC(F)(F)F)c(OC(F)(F)F)c1 (repeat unit) | –
274.00 °C | *Oc1ccc2c(c1)C(=O)N(c1cc(N3C(=O)c4ccc(*)cc4C3=O)cc(C(F)(F)F)c1)C2=O (repeat unit) | –
239.00 °C | *Oc1cccc(Oc2ccc(Oc3cccc4c3C(=O)N(c3ccc(Oc5ccc(N6C(=O)c7cccc(*)c7C6=O)cc5)cc3)C4=O)cc2)c1 (repeat unit) | –
375.50 ± 6.4 °C | *c1ccc2c(c1)C(=O)N(c1c(F)c(F)c(N3C(=O)c4ccc(C(*)(C(F)(F)F)C(F)(F)F)cc4C3=O)c(F)c1F)C2=O (repeat unit) | –

Further lines, the compound ahead of its results:

SMILES | glass transition temperature [2] | further results
*CC(*)Br (repeat unit) [Poly(vinyl bromide)] | – | glass transition temperature: 100 °C
*C=Cc1cc(OC)c(*)cc1OCC(CC)CCCC (repeat unit) | – | glass transition temperature [1]: 66.00 °C
*CC(*)C(=O)CC (repeat unit) [Poly(vinyl ethyl ketone)] | – | glass transition temperature: -60 °C
*c1ccc(-c2ccc(OCCCCCCCCCC)c(-c3cc(*)ccc3OCCCCCCCCCC)c2)cc1 (repeat unit) | – | glass transition temperature [1]: 58.00 °C
*c1cccc(Oc2ccc(P(=O)(c3ccccc3)c3ccc(Oc4ccc(-n5c(=O)c6cc7c(=O)n(*)c(=O)c7cc6c5=O)cc4)cc3)cc2)c1 (repeat unit) | 254.00 °C | –
*Oc1ccc2ccccc2c1-c1c(Oc2ccc3c(c2)C(=O)N(c2ccc(Oc4ccc(N5C(=O)c6ccc(*)cc6C5=O)cc4)cc2)C3=O)ccc2ccccc12 (repeat unit) | 274.00 °C | –
*c1ccc2c(c1)C(CCCCCCCC)(CCCCCCCC)c1cc(-c3ccc(-c4ccc(-c5ccc(*)s5)c5cc(-c6ccccc6)c(-c6ccccc6)nc45)s3)ccc1-2 (repeat unit) | – | glass transition temperature [1]: 142.00 °C
*c1ccc2c(c1)C(=O)N(c1ccc(Oc3c(F)c(F)c(Oc4ccc(N5C(=O)c6ccc(C(*)(C(F)(F)F)C(F)(F)F)cc6C5=O)cc4)c(F)c3F)cc1)C2=O (repeat unit) | 243.80 °C | –
*c1cccc(C(c2cccc(-n3c(=O)c4cc5c(=O)n(*)c(=O)c5cc4c3=O)c2)(C(F)(F)F)C(F)(F)F)c1 (repeat unit) | 296.00 °C | –
*C(=O)Oc1ccc2ccccc2c1-c1c(OC(=O)c2ccc3c(c2)C(=O)N(c2ccc(Oc4ccc(N5C(=O)c6ccc(*)cc6C5=O)cc4)cc2)C3=O)ccc2ccccc12 (repeat unit) | 257.00 °C | –
*c1ccc(-c2ccc(N3C(=O)c4cc5c(cc4C3=O)C(C(F)(F)F)(C(F)(F)F)c3cc4c(cc3O5)C(=O)N(*)C4=O)cc2C(F)(F)F)c(C(F)(F)F)c1 (repeat unit) | 420.00 °C | –
*Oc1ccc2c(c1)C(=O)N(c1ccc(Oc3ccc(Oc4cccc(N5C(=O)c6cccc(*)c6C5=O)c4)cc3)cc1)C2=O (repeat unit) | 249.00 ± 5.7 °C | –
*Sc1cccc2c1C(=O)N(c1ccc(Oc3ccc(N4C(=O)c5cccc(*)c5C4=O)cc3)cc1)C2=O (repeat unit) | 287.00 ± 8.5 °C | –
*Oc1ccc(Oc2ccc3c(c2)C(=O)N(c2ccc(Oc4ccc5ccccc5c4-c4c(Oc5ccc(N6C(=O)c7ccc(*)cc7C6=O)cc5C(F)(F)F)ccc5ccccc45)c(C(F)(F)F)c2)C3=O)cc1 (repeat unit) | 256.00 °C | –
*c1ccc(-c2ccc(OCCCC)c(-c3cc(*)ccc3OCCCC)c2)cc1 (repeat unit) | – | glass transition temperature [1]: 164.00 °C
*Oc1ccc(C(c2ccc(Oc3cccc4c3C(=O)N(CCCCCCCCN3C(=O)c5cccc(*)c5C3=O)C4=O)cc2)(C(F)(F)F)C(F)(F)F)cc1 (repeat unit) | 135.00 °C | –
*C(=O)c1ccc2c(c1)C(=O)N(c1ccc(C(=O)c3ccccc3N3C(=O)c4ccc(*)cc4C3=O)cc1)C2=O (repeat unit) | 289.00 °C | –
*C=Cc1cc(OC)c(*)cc1OCCC(C)CCCC(C)C (repeat unit) | – | glass transition temperature [1]: 50.00 °C
*Oc1ccc2c(c1)C(=O)N(c1ccc(P(=O)(c3ccccc3)c3ccc(N4C(=O)c5ccc(*)cc5C4=O)cc3)cc1)C2=O (repeat unit) | 311.00 °C | –
*Oc1ccc2c(c1)C(=O)N(c1ccc(Oc3ccc(Oc4ccc(N5C(=O)c6ccc(*)cc6C5=O)cc4)cc3C(C)(C)C)cc1)C2=O (repeat unit) | 240.00 °C | –
*C(=O)c1ccc2c(c1)C(=O)N(c1cc(N3C(=O)c4ccc(*)cc4C3=O)ccc1OCC(F)(F)C(F)(F)C(F)(F)C(F)(F)C(F)(F)C(F)(F)C(F)(F)F)C2=O (repeat unit) | 223.00 °C | –
*C1=C(Cl)C(=O)N(c2ccc(Cc3ccc(N4C(=O)C(Cl)=C(Oc5c(Cl)cc(C(C)(C)c6cc(Cl)c(*)c(Cl)c6)cc5Cl)C4=O)cc3)cc2)C1=O (repeat unit) | 200.00 °C | –
*c1ccc2c3ccc(-c4sc(-c5ccc(-c6cc(CCCCCC)c(*)s6)c6nsnc56)cc4CCCCCC)cc3n(C(CCCCCCCC)CCCCCCCC)c2c1 (repeat unit) | – | glass transition temperature [1]: 74.00 °C
*C(=O)c1ccc2c(c1)C(=O)N(c1cccc(Oc3ccc(P(=O)(c4ccccc4)c4ccc(Oc5ccc(N6C(=O)c7ccc(*)cc7C6=O)cc5)cc4)cc3)c1)C2=O (repeat unit) | 232.00 °C | –
*c1ccc2c(c1)C(=O)N(c1ccc(-c3ccc(N4C(=O)c5ccc(C(*)(C(F)(F)F)C(F)(F)F)cc5C4=O)cc3-c3ccc(C(F)(F)F)cc3)c(-c3ccc(C(F)(F)F)cc3)c1)C2=O (repeat unit) | 283.00 °C | –
